# Key:
# Test in all cases: relative viability (nuclei count vs DMSO), 5 days (fraction); higher = more cells survive
# Linsitinib + Bortezomib = compound: C[C@]1(O)C[C@@H](c2nc(-c3ccc4ccc(-c5ccccc5)nc4c3)c3c(N)nccn32)C1 [Linsitinib] + CC(C)C[C@H](NC(=O)[C@H](Cc1ccccc1)NC(=O)c1cnccn1)B(O)O [Bortezomib] (partner 0.002 µM)
# Procedure, shortened: (§1)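 Relative viability was taken as the ratio of nuclei in treated wells to nuclei in vehicle wells. Lung cancer cell lines in 1536-well plates received compounds by pin tool one day after seeding, either one drug alone or a fixed anchor-drug dose plus five library-drug doses (not always all listed) in √10 steps. Nuclei were counted on 4× images after 5 days of treatment, and values are medians of duplicate plates.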
# Linsitinib + Navitoclax = compound: C[C@]1(O)C[C@@H](c2nc(-c3ccc4ccc(-c5ccccc5)nc4c3)c3c(N)nccn32)C1 [Linsitinib] + CC1(C)CCC(c2ccc(Cl)cc2)=C(CN2CCN(c3ccc(C(=O)NS(=O)(=O)c4ccc(N[C@H](CCN5CCOCC5)CSc5ccccc5)c(S(=O)(=O)C(F)(F)F)c4)cc3)CC2)C1 [Navitoclax] (partner 0.5 µM)
# Procedure, shortened: as §1
# Linsitinib + Decitabine = compound: C[C@]1(O)C[C@@H](c2nc(-c3ccc4ccc(-c5ccccc5)nc4c3)c3c(N)nccn32)C1 [Linsitinib] + Nc1ncn([C@H]2C[C@H](O)[C@@H](CO)O2)c(=O)n1 [Decitabine] (partner 2 µM)
# Procedure, shortened: as §1
# Ispinesib + Tozasertib = compound: Cc1ccc(C(=O)N(CCCN)[C@@H](c2nc3cc(Cl)ccc3c(=O)n2Cc2ccccc2)C(C)C)cc1 [Ispinesib] + Cc1cc(Nc2cc(N3CCN(C)CC3)nc(Sc3ccc(NC(=O)C4CC4)cc3)n2)n[nH]1 [Tozasertib] (partner 0.1 µM)
# Procedure, shortened: as §1
cell line,measurement,setting,value
NCI-H2085,relative viability,Linsitinib + Bortezomib; first compound 0.01 µM,1.03
same,relative viability,Linsitinib + Bortezomib; first compound 0.03162 µM,1.06
same,relative viability,Linsitinib + Bortezomib; first compound 0.1 µM,0.997
same,relative viability,Linsitinib + Bortezomib; first compound 0.3162 µM,0.888
same,relative viability,Linsitinib + Bortezomib; first compound 1 µM,0.976
same,relative viability,Linsitinib + Navitoclax; first compound 0.01 µM,1.03
same,relative viability,Linsitinib + Navitoclax; first compound 0.03162 µM,1.11
same,relative viability,Linsitinib + Navitoclax; first compound 0.1 µM,1.22
same,relative viability,Linsitinib + Navitoclax; first compound 0.3162 µM,1.07
same,relative viability,Linsitinib + Navitoclax; first compound 1 µM,1.2
same,relative viability,Linsitinib + Decitabine; first compound 0.01 µM,0.525
same,relative viability,Linsitinib + Decitabine; first compound 0.03162 µM,0.59
same,relative viability,Linsitinib + Decitabine; first compound 0.1 µM,0.509
same,relative viability,Linsitinib + Decitabine; first compound 0.3162 µM,0.528
same,relative viability,Linsitinib + Decitabine; first compound 1 µM,0.618
same,relative viability,Ispinesib + Tozasertib; first compound 0.001 µM,0.881
same,relative viability,Ispinesib + Tozasertib; first compound 0.003162 µM,0.855
same,relative viability,Ispinesib + Tozasertib; first compound 0.01 µM,1
same,relative viability,Ispinesib + Tozasertib; first compound 0.03162 µM,0.76
same,relative viability,Ispinesib + Tozasertib; first compound 0.1 µM,0.651
NCI-H2087,relative viability,Linsitinib + Bortezomib; first compound 0.01 µM,0.947
same,relative viability,Linsitinib + Bortezomib; first compound 0.03162 µM,0.97
same,relative viability,Linsitinib + Bortezomib; first compound 0.1 µM,0.945
same,relative viability,Linsitinib + Bortezomib; first compound 0.3162 µM,0.594
same,relative viability,Linsitinib + Bortezomib; first compound 1 µM,0.641
same,relative viability,Linsitinib + Navitoclax; first compound 0.01 µM,1.1
same,relative viability,Linsitinib + Navitoclax; first compound 0.03162 µM,1.05
same,relative viability,Linsitinib + Navitoclax; first compound 0.1 µM,0.861
same,relative viability,Linsitinib + Navitoclax; first compound 0.3162 µM,0.843
same,relative viability,Linsitinib + Navitoclax; first compound 1 µM,0.821
same,relative viability,Linsitinib + Decitabine; first compound 0.01 µM,0.275
same,relative viability,Linsitinib + Decitabine; first compound 0.03162 µM,0.387
same,relative viability,Linsitinib + Decitabine; first compound 0.1 µM,0.257
same,relative viability,Linsitinib + Decitabine; first compound 0.3162 µM,0.259
same,relative viability,Linsitinib + Decitabine; first compound 1 µM,0.267
same,relative viability,Ispinesib + Tozasertib; first compound 0.001 µM,0.301
same,relative viability,Ispinesib + Tozasertib; first compound 0.003162 µM,0.246
same,relative viability,Ispinesib + Tozasertib; first compound 0.01 µM,0.29
same,relative viability,Ispinesib + Tozasertib; first compound 0.03162 µM,0.261
same,relative viability,Ispinesib + Tozasertib; first compound 0.1 µM,0.155
NCI-H2126,relative viability,Linsitinib + Bortezomib; first compound 0.01 µM,1.13
same,relative viability,Linsitinib + Bortezomib; first compound 0.03162 µM,1.14
same,relative viability,Linsitinib + Bortezomib; first compound 0.1 µM,1.13
same,relative viability,Linsitinib + Bortezomib; first compound 0.3162 µM,0.687
same,relative viability,Linsitinib + Bortezomib; first compound 1 µM,1.06
same,relative viability,Linsitinib + Navitoclax; first compound 0.01 µM,0.95
same,relative viability,Linsitinib + Navitoclax; first compound 0.03162 µM,0.808
same,relative viability,Linsitinib + Navitoclax; first compound 0.1 µM,0.945
same,relative viability,Linsitinib + Navitoclax; first compound 0.3162 µM,0.925
same,relative viability,Linsitinib + Navitoclax; first compound 1 µM,0.878
same,relative viability,Linsitinib + Decitabine; first compound 0.01 µM,0.6
same,relative viability,Linsitinib + Decitabine; first compound 0.03162 µM,0.675
same,relative viability,Linsitinib + Decitabine; first compound 0.1 µM,0.574
same,relative viability,Linsitinib + Decitabine; first compound 0.3162 µM,0.544
same,relative viability,Linsitinib + Decitabine; first compound 1 µM,0.577
same,relative viability,Ispinesib + Tozasertib; first compound 0.001 µM,0.813
same,relative viability,Ispinesib + Tozasertib; first compound 0.003162 µM,0.913
same,relative viability,Ispinesib + Tozasertib; first compound 0.01 µM,0.944
same,relative viability,Ispinesib + Tozasertib; first compound 0.03162 µM,0.644
same,relative viability,Ispinesib + Tozasertib; first compound 0.1 µM,0.449
NCI-H2347,relative viability,Linsitinib + Bortezomib; first compound 0.01 µM,0.885
same,relative viability,Linsitinib + Bortezomib; first compound 0.03162 µM,0.737
same,relative viability,Linsitinib + Bortezomib; first compound 0.1 µM,0.941
same,relative viability,Linsitinib + Bortezomib; first compound 0.3162 µM,0.77
same,relative viability,Linsitinib + Bortezomib; first compound 1 µM,1.05
same,relative viability,Linsitinib + Navitoclax; first compound 0.01 µM,0.731
same,relative viability,Linsitinib + Navitoclax; first compound 0.03162 µM,0.915
same,relative viability,Linsitinib + Navitoclax; first compound 0.1 µM,0.717
same,relative viability,Linsitinib + Navitoclax; first compound 0.3162 µM,0.533
same,relative viability,Linsitinib + Navitoclax; first compound 1 µM,0.754
same,relative viability,Linsitinib + Decitabine; first compound 0.01 µM,0.644
same,relative viability,Linsitinib + Decitabine; first compound 0.03162 µM,0.668
same,relative viability,Linsitinib + Decitabine; first compound 0.1 µM,0.629
same,relative viability,Linsitinib + Decitabine; first compound 0.3162 µM,0.591
same,relative viability,Linsitinib + Decitabine; first compound 1 µM,0.614
same,relative viability,Ispinesib + Tozasertib; first compound 0.001 µM,0.529
same,relative viability,Ispinesib + Tozasertib; first compound 0.003162 µM,0.545
same,relative viability,Ispinesib + Tozasertib; first compound 0.01 µM,0.65
same,relative viability,Ispinesib + Tozasertib; first compound 0.03162 µM,0.55
same,relative viability,Ispinesib + Tozasertib; first compound 0.1 µM,0.52
NCI-H2405,relative viability,Linsitinib + Bortezomib; first compound 0.01 µM,0.592
same,relative viability,Linsitinib + Bortezomib; first compound 0.03162 µM,0.929
same,relative viability,Linsitinib + Bortezomib; first compound 0.1 µM,0.949
same,relative viability,Linsitinib + Bortezomib; first compound 0.3162 µM,0.676
same,relative viability,Linsitinib + Bortezomib; first compound 1 µM,0.921
same,relative viability,Linsitinib + Navitoclax; first compound 0.01 µM,0.906
same,relative viability,Linsitinib + Navitoclax; first compound 0.03162 µM,0.72
same,relative viability,Linsitinib + Navitoclax; first compound 0.1 µM,0.954
same,relative viability,Linsitinib + Navitoclax; first compound 0.3162 µM,0.716
same,relative viability,Linsitinib + Navitoclax; first compound 1 µM,0.846
same,relative viability,Linsitinib + Decitabine; first compound 0.01 µM,0.709
same,relative viability,Linsitinib + Decitabine; first compound 0.03162 µM,0.813
same,relative viability,Linsitinib + Decitabine; first compound 0.1 µM,0.713
same,relative viability,Linsitinib + Decitabine; first compound 0.3162 µM,0.686
same,relative viability,Linsitinib + Decitabine; first compound 1 µM,0.588
same,relative viability,Ispinesib + Tozasertib; first compound 0.001 µM,0.798
same,relative viability,Ispinesib + Tozasertib; first compound 0.003162 µM,0.7
same,relative viability,Ispinesib + Tozasertib; first compound 0.01 µM,0.858
same,relative viability,Ispinesib + Tozasertib; first compound 0.03162 µM,0.771
same,relative viability,Ispinesib + Tozasertib; first compound 0.1 µM,0.965

# Source: the supplement of paper PMC10307832
